The text below walks through data of US12370162B1 (Rplushealth Limited, priority 2024, dated 2025).

Molecules are shown by their SMILES.

Experiment [1] deals with A431, MCF-7, HeLa, HepG2, PC3, SKOV3, A549, U251, K562, and Caco-2 tumor cells. Briefly: MTT assay, tumor cell growth with serine/glycine at different levels. The class given is cell-based. The note with it: low serine level or low glycine level compared to high serine and glycine levels; 48 hours culture.
Experiment [2] has the same test system. Briefly: Transwell migration assay with serine/glycine at different levels. The class given is cell-based. Particulars: low serine level or low glycine level compared to high serine and glycine levels.

With `NCC(=O)O` [glycine], the “cell growth (MTT, growth %)” value in experiment [1] is on record as “grew slowly”. Besides, the “migration capability (Transwell, metastasis %)” value in experiment [2] was “relatively high migration capability”.

Turning to `N[C@@H](CO)C(=O)O` [serine], the “cell growth (MTT, growth %)” value in experiment [1] was “grew slowly”. The “migration capability (Transwell, metastasis %)” value in experiment [2] is “relatively high migration capability”.
